Reference: patent publication US20090105266A1, “Organic compounds” (priority 2007, published 2009)

Molecular target: T1, mGluR5 (Homo sapiens, UniProt P41594)
T1 construct: expressed in transfected cells
Test: inhibition of the glutamate (agonist) induced elevation of the inositol phosphate turnover
Type: cell-based
Conditions: inhibition of glutamate induced elevation of inositol phosphate turnover at 0.1 μM
Description: This can be determined in vitro for example at recombinant human metabotropic glutamate receptors, especially PLC-coupled subtypes thereof such as mGluR5, using different procedures like, for example, measurement of the inhibition of the agonist induced elevation of intracellular Ca^2+ concentration in accordance with L. P. Daggett et al., Neuropharm. Vol. 34, pages 871-886 (1995), P. J. Flor et al., J. Neurochem. Vol. 67, pages 58-63 (1996) or by determination to what extent the agonist induced elevation of the inositol phosphate turnover is inhibited as described by T. Knoepfel et al., Eur. J. Pharmacol. Vol. 288, pages 389-392 (1994), L. P. Daggett et al., Neuropharm. Vol. 67, pages 58-63 (1996) and references cited therein. Isolation and expression of human mGluR subtypes are described in U.S. Pat. No. 5,521,297. Selected agents of the invention show IC50 values for the inhibition of the agonist (e.g. glutamate or quisqualate) induced elevation of intracellular Ca2+ concentration or the agonist (e.g. glutamate or quisqualate) induced inositol phosphate turnover, measured in recombinant cells expressing hmGluR^5a of about 0.1 nM to about 50 μM.
Activity of compounds of the present invention was examined by determination to what extent the agonist induced elevation of the inositol phosphate turnover is inhibited as described by T. Knoepfel et al., Eur. J. Pharmacol. Vol. 288, pages 389-392 (1994), L. P. Daggett et al., Neuropharm. Vol. 67, pages 58-63 (1996) and references cited therein.
The table below represents percentages of inhibition of the glutamate induced elevation of the inositol phosphate turnover at a concentration of 0.1 μM.

T1 sequence (P41594 21-1180 isoform P41594-2 limits assumed): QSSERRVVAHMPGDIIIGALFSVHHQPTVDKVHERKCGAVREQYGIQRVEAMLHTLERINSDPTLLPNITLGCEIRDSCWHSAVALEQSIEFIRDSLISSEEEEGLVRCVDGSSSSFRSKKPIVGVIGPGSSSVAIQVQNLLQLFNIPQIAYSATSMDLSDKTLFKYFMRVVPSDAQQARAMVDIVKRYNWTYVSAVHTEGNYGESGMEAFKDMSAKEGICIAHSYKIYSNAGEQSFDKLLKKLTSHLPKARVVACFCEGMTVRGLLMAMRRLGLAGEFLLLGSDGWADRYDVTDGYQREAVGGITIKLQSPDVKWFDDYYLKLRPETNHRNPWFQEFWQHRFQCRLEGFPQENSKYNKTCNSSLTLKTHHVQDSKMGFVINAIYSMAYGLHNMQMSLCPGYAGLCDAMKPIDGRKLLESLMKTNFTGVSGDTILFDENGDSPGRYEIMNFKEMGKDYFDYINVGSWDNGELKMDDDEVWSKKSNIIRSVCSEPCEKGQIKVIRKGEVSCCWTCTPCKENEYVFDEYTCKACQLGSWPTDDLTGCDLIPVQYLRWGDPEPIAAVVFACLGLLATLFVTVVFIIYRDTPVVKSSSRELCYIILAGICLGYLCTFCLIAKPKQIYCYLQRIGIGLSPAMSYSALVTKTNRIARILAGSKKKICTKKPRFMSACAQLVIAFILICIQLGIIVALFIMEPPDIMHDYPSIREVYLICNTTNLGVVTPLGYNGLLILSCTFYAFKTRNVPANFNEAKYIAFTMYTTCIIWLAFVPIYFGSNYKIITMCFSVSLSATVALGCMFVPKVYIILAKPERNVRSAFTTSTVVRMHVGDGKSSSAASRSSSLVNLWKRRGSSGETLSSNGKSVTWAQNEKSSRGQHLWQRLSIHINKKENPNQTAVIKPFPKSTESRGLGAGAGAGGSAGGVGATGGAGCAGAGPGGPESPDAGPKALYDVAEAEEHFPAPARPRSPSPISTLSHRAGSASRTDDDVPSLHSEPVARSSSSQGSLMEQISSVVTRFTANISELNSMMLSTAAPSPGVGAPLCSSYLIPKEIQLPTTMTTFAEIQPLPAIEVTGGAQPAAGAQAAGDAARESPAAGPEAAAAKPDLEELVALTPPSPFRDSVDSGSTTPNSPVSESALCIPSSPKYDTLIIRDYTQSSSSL

Row | Compound | inhibition at 0.1 µM [%] | mGluR5-activity in [%] inhibition at 0.1 μM [%]
1 | CCCCCn1c(-c2cnc(Nc3ccc(C)nc3)c(Cl)c2)nc2ccccc21 [Example 19, [3-Chloro-5-(1-pentyl-1H-benzoimidazol-2-yl)-pyridin-2-yl]-(6-methyl-pyridin-3-yl)-amine] | 57 | –
2 | Cc1ccc(Nc2ncc(-c3nc4ccccc4n3CC(C)C)cc2Cl)cn1 [Example 20, [3-Chloro-5-(1-isobutyl-1H-benzoimidazol-2-yl)-pyridin-2-yl]-(6-methyl-pyridin-3-yl)-amine] | 98 | –
3 | CCCn1c(-c2cnc(Nc3ccc(C)nc3)c(Cl)c2)nc2cc(C(F)(F)F)ccc21 [Example 21, [3-Chloro-5-(1-propyl-5-trifluoromethyl-1H-benzoimidazol-2-yl)-pyridin-2-yl]-(6-methyl-pyridin-3-yl)-amine] | 65 | –
4 | CCCn1c(-c2cnc(Nc3ccc(C)nc3)c(Cl)c2)nc2cc(C)ccc21 [Example 22, [3-Chloro-5-(5-methyl-1-propyl-1H-benzoimidazol-2-yl)-pyridin-2-yl]-(6-methyl-pyridin-3-yl)-amine] | 97 | –
5 | CCCn1c(-c2cnc(Nc3ccc(C)nc3)c(Cl)c2)nc2ccc(C)cc21 [Example 23, [3-Chloro-5-(6-methyl-1-propyl-1H-benzoimidazol-2-yl)-pyridin-2-yl]-(6-methyl-pyridin-3-yl)-amine] | 84 | –
6 | CCCn1c(-c2cnc(Nc3ccc(C)nc3)c(Cl)c2)nc2cccc(C)c21 [Example 24, [3-Chloro-5-(7-methyl-1-propyl-1H-benzoimidazol-2-yl)-pyridin-2-yl]-(6-methyl-pyridin-3-yl)-amine] | 101 | –
7 | CCCn1c(-c2cnc(Nc3ccc(C)nc3)c(Cl)c2)nc2c(C)cccc21 [Example 25, [3-Chloro-5-(4-methyl-1-propyl-1H-benzoimidazol-2-yl)-pyridin-2-yl]-(6-methyl-pyridin-3-yl)-amine] | 97 | –
8 | CCCn1c(-c2cnc(Nc3ccc(C)nc3)c(Cl)c2)nc2ccc(C)c(C)c21 [Example 26, [3-Chloro-5-(6,7-dimethyl-1-propyl-1H-benzoimidazol-2-yl)-pyridin-2-yl]-(6-methyl-pyridin-3-yl)-amine] | 98 | –
9 | CCCn1c(-c2cnc(Nc3ccc(C)nc3)c(Cl)c2)nc2c(C)ccc(C)c21 [Example 29, [3-Chloro-5-(4,7-dimethyl-1-propyl-1H-benzoimidazol-2-yl)-pyridin-2-yl]-(6-methyl-pyridin-3-yl)-amine] | 99 | –
10 | CCCn1c(-c2cnc(Nc3ccc(C)nc3)c(Cl)c2)nc2cc(F)c(F)cc21 [Example 30, [3-Chloro-5-(5,6-difluoro-1-propyl-1H-benzoimidazol-2-yl)-pyridin-2-yl]-(6-methyl-pyridin-3-yl)-amine] | 99 | –
11 | Cc1ccc(Nc2ncc(-c3nc4cccc5c4n3CCC5)cc2Cl)cn1 [Example 31, [3-Chloro-5-(5,6-dihydro-4H-imidazo[4,5,1-ij]quinolin-2-yl)-pyridin-2-yl]-(6-methyl-pyridin-3-yl)-amine] | 90 | –
12 | CCCn1c(-c2cnc(Nc3ccc(C)nc3)c(Cl)c2)nc2cc(I)cc(Cl)c21 [Example 34b, [3-Chloro-5-(7-chloro-5-iodo-1-propyl-1H-benzoimidazol-2-yl)-pyridin-2-yl]-(6-methyl-pyridin-3-yl)-amine] | 97 | –
13 | CCCn1c(-c2cnc(Nc3ccc(C)nc3)c(Cl)c2)nc2cc(Cl)ccc21 [Example 45, [3-Chloro-5-(5-chloro-1-propyl-1H-benzoimidazol-2-yl)-pyridin-2-yl]-(6-methyl-pyridin-3-yl)-amine] | 91 | –
14 | CCCn1c(-c2cnc(Nc3ccc(C)nc3)c(Cl)c2)nc2c(Cl)cccc21 [Example 47, [3-Chloro-5-(4-chloro-1-propyl-1H-benzoimidazol-2-yl)-pyridin-2-yl]-(6-methyl-pyridin-3-yl)-amine] | 100 | –
15 | CCCn1c(-c2cnc(Nc3ccc(C)nc3)c(Cl)c2)nc2cccc(Cl)c21 [Example 48, [3-Chloro-5-(7-chloro-1-propyl-1H-benzoimidazol-2-yl)-pyridin-2-yl]-(6-methyl-pyridin-3-yl)-amine] | 101 | –
16 | CCCn1c(-c2cnc(Nc3ccc(Cl)cc3)c(Cl)c2)nc2cccc(Cl)c21 [Example 52, [3-Chloro-5-(7-chloro-1-propyl-1H-benzoimidazol-2-yl)-pyridin-2-yl]-(4-chloro-phenyl)-amine] | 99 | –
17 | CCCn1c(-c2cnc(Nc3ccccc3F)c(Cl)c2)nc2cccc(Cl)c21 [Example 53, [3-Chloro-5-(7-chloro-1-propyl-1H-benzoimidazol-2-yl)-pyridin-2-yl]-(2-fluoro-phenyl)-amine] | 95 | –

Row | Compound | inhibition at 0.1 µM [%] | mGluR5-activity in [%] inhibition at 0.1 μM [%]
18 | CCCn1c(-c2cnc(Nc3ccc(F)cc3)c(Cl)c2)nc2cccc(Cl)c21 [Example 54, [3-Chloro-5-(7-chloro-1-propyl-1H-benzoimidazol-2-yl)-pyridin-2-yl]-(4-fluoro-phenyl)-amine] | 97 | –
19 | CCCn1c(-c2cnc(Nc3cccc(F)c3)c(Cl)c2)nc2cccc(Cl)c21 [Example 55, [3-Chloro-5-(7-chloro-1-propyl-1H-benzoimidazol-2-yl)-pyridin-2-yl]-(3-fluoro-phenyl)-amine] | 63 | –
20 | CCCn1c(-c2cnc(Nc3ccc(C#N)cc3)c(Cl)c2)nc2cccc(Cl)c21 [Example 56, 4-[3-Chloro-5-(7-chloro-1-propyl-1H-benzoimidazol-2-yl)-pyridin-2-ylamino]-benzonitrile] | 100 | –
21 | CCCn1c(-c2cnc(Nc3ccc(F)c(F)c3)c(Cl)c2)nc2cccc(Cl)c21 [Example 57, [3-Chloro-5-(7-chloro-1-propyl-1H-benzoimidazol-2-yl)-pyridin-2-yl]-(3,4-difluoro-phenyl)-amine] | 93 | –
22 | CCCn1c(-c2cnc(Nc3cccc(F)c3F)c(Cl)c2)nc2cccc(Cl)c21 [Example 58, [3-Chloro-5-(7-chloro-1-propyl-1H-benzoimidazol-2-yl)-pyridin-2-yl]-(2,3-difluoro-phenyl)-amine] | 40 | –
23 | CCCn1c(-c2cnc(Nc3ccncc3)c(Cl)c2)nc2cccc(Cl)c21 [Example 59, [3-Chloro-5-(7-chloro-1-propyl-1H-benzoimidazol-2-yl)-pyridin-2-yl]-pyridin-4-yl-amine] | 51 | –
24 | CCCn1c(-c2cnc(Nc3ccc(C)nn3)c(Cl)c2)nc2cccc(Cl)c21 [Example 60, [3-Chloro-5-(7-chloro-1-propyl-1H-benzoimidazol-2-yl)-pyridin-2-yl]-(6-methyl-pyridazin-3-yl)-amine] | 87 | –
25 | CCCn1c(-c2cnc(Nc3ccc4nccnc4c3)c(Cl)c2)nc2cccc(Cl)c21 [Example 61, [3-Chloro-5-(7-chloro-1-propyl-1H-benzoimidazol-2-yl)-pyridin-2-yl]-quinoxalin-6-yl-amine] | 96 | –
26 | CCCn1c(-c2cnc(Nc3cnc(C)cn3)c(Cl)c2)nc2cccc(Cl)c21 [Example 62, [3-Chloro-5-(7-chloro-1-propyl-1H-benzoimidazol-2-yl)-pyridin-2-yl]-(5-methyl-pyrazin-2-yl)-amine] | 99 | –
27 | CCCn1c(-c2cnc(Nc3cnc4ccccc4c3)c(Cl)c2)nc2cccc(Cl)c21 [Example 63, [3-Chloro-5-(7-chloro-1-propyl-1H-benzoimidazol-2-yl)-pyridin-2-yl]-quinolin-3-yl-amine] | 28 | –
28 | CCCn1c(-c2cnc(Nc3ccc4ncccc4c3)c(Cl)c2)nc2cccc(Cl)c21 [Example 64, [3-Chloro-5-(7-chloro-1-propyl-1H-benzoimidazol-2-yl)-pyridin-2-yl]-quinolin-6-yl-amine] | 17 | –
29 | CCCn1c(-c2cnc(Nc3ccc(C)cc3)c(Cl)c2)nc2ccc(F)cc21 [Example 65, [3-Chloro-5-(6-fluoro-1-propyl-1H-benzoimidazol-2-yl)-pyridin-2-yl]-p-tolyl-amine] | 92 | –
30 | CCCn1c(-c2cnc(Nc3ccc(OC)cc3)c(Cl)c2)nc2ccc(F)cc21 [Example 66, [3-Chloro-5-(6-fluoro-1-propyl-1H-benzoimidazol-2-yl)-pyridin-2-yl]-(4-methoxy-phenyl)-amine] | 93 | –
31 | CCCn1c(-c2cnc(Nc3c(F)cccc3F)c(Cl)c2)nc2cccc(Cl)c21 [Example 67, [3-Chloro-5-(7-chloro-1-propyl-1H-benzoimidazol-2-yl)-pyridin-2-yl]-(2,6-difluoro-phenyl)-amine] | 42 | –
32 | CCCn1c(-c2cnc(Nc3ccc(N(C)C)nc3)c(Cl)c2)nc2ccc(F)cc21 [Example 68, N-5-[3-Chloro-5-(6-fluoro-1-propyl-1H-benzoimidazol-2-yl)-pyridin-2-yl]-N-2,N-2-dimethyl-pyridine-2,5-diamine] | – | 43
33 | CCCn1c(-c2cnc(Nc3ccc(N(C)C)nc3)c(Cl)c2)nc2ccccc21 [Example 69, N-5-[3-Chloro-5-(1-propyl-1H-benzoimidazol-2-yl)-pyridin-2-yl]-N2,N-2-dimethyl-pyridine-2,5-diamine] | – | 32
